The values below come from patent publication US8679478B2, “Methods of lysosomal storage disease therapy” (Duke University, priority 2010, dated 2014).

Common to all, as to type: in vivo, mouse
The test system of experiment [1] is CI-MPR. Briefly: Western blot and densitometry of CI-MPR expression in skeletal muscle and brain. Conditions: following clenbuterol treatment. As to the method:
Western blot detection of CI-MPR and control proteins, β-actin or glyceraldehydes-3-phosphate dehydrogenase (GAPDH) in the tissues of GAA-KO mice is shown, with molecular weights indicated. Each lane represents an individual mouse. Equivalent quantities of tissue homogenate were loaded for each mouse. […] Mean+/−standard deviation are shown. Statistically significant differences indicated (*=p<0.05; **=p<0.01).
(§1) For in vivo analysis of AAV vectors, stocks were administered intravenously (via the retroorbital sinus) in 3 month-old and 15 month-old GAA-KO mice, and to 3 month-old tolerant GAA-KO and DKO mice. Clenbuterol (30 μg/ml) was administered to groups of 3 month-old vector-injected and mock-injected male GAA-KO mice in drinking water for 28 days. At the indicated time points post-injection, tissue samples were obtained and processed as described below. All animal procedures were done in accordance with Duke University Institutional Animal Care and Use Committee-approved guidelines. GAA activity and glycogen content were analyzed essentially as described (Sun et al., Mol. Ther., 2005, 11:889-898; Sun et al., Mol. Ther., 2005, 11: 57-65). Rotarod testing was performed essentially as described (Sun, B. D. et al. 2005). Western blotting of hGAA was performed essentially as described (Amalfitano et al., Proc. Natl. Acad. Sci. USA, 1999, 96: 8861-8866) using the hGAA monoclonal antibody (courtesy of Genzyme Corp., Framingham, Mass.) and the CI-MPR antibody (catalog number GTX28093; Gene Tex, Irvine, Calif.).
(Immunoblotting shows a protein as a band on a membrane.)

Experiment [2] has as its system GAA-KO mice. Nature of the experiment: Weight gain, ERT plus clenbuterol. The following applies: ERT plus clenbuterol v. ERT alone; male mice; p<0.05 at weeks 1-3. As to the method:
GAA-KO mice were administered four weekly doses of rhGAA (20 mg/kg), and treated with clenbuterol (n=5) or ERT alone (n=5). […] Mean+/−standard deviation are shown. Statistically significant differences indicated (*=p<0.05; **=p<0.01).
(§2) The efficacy from gene therapy was increased by β2 agonist stimulation from clenbuterol treatment, and this benefit might be expected to affect ERT in Pompe disease, as well. Therefore, groups of 3 month-old GAA-KO mice were treated with four weekly doses of rhGAA (20 mg/kg), with or without concurrent clenbuterol treatment.

The test system of experiment [3] is GAA-KO mice. Nature of the experiment: GAA activity in tissues, ERT plus clenbuterol. The following applies: ERT plus clenbuterol v. ERT alone. The protocol: FIG. 8A-8C depicts increased GAA uptake and increased glycogen clearance in GAA-KO mice following clenbuterol treatment and ERT. […] GAA-KO mice were administered four weekly doses of rhGAA (20 mg/kg), and treated with clenbuterol (n=6) or untreated (n=5). […] Mean+/−standard deviation are shown. Statistically significant differences indicated (*=p<0.05; **=p<0.01).
as §1, §2

Experiment [4] relates to immune tolerant GAA-KO mice. Nature of the experiment: Weight of gastrocnemius, ERT plus β2 agonist. The following applies: clenbuterol plus ERT v. ERT alone or albuterol plus ERT. As to the method:
GAA-KO mice were administered four weekly doses of rhGAA (20 mg/kg), and treated with medium dose clenbuterol (n=7), albuterol (n=4) or untreated (n=6 or 3). […] Mean+/−standard deviation are shown. P values indicate statistically significant differences (lines).
Two β2 agonists were evaluated in combination with ERT, clenbuterol and albuterol. The dose of clenbuterol was reduced 5-fold from the concentration used in Example 4, to 6 mg/l in drinking water, while albuterol was evaluated at the higher dose (30 mg/l in drinking water). Groups of 3 month-old immune tolerant GAA-KO mice (Raben et al., Human Mol. Genet., 2001, 10:2039-2047) were treated with four weekly doses of rhGAA (20 mg/kg body weight), with or without concurrent β2 agonist treatment.
Mice were sacrificed 7 days after the last injection. Selected tissues were collected for GAA enzyme activity and glycogen content analyses. […] GAA activity and glycogen content analyses, Rotarod testing, and Western blot detection of CI-MPR was performed essentially as described (Koeberl et al., Mol. Genet. Metab., 2011, 103:107-112. Wire hang testing was performed with a 0.5 cm mesh hardware cloth fixed to an 8 by 10 inch frame. Mice were placed on the wire mesh, which was slowly inverted 6 inches over a cage containing paper bedding. The latency, or time until the mouse fell into the cage, was recorded.

Experiment [5] concerns immune tolerant GAA-KO mice. Nature of the experiment: GAA activity in tissues, ERT plus β2 agonist (Example 6). As to the method: Male GAA-KO mice were administered four weekly doses of 20 mg/kg body weight of rhGAA and sacrificed one week following the last injection. Groups of mice were treated with clenbuterol (n=6), albuterol (n=4) or untreated (n=6). Mice were euthanized for tissue analysis 5 weeks after initiation of ERT.
Cerebral and cerebellar hemispheres were analyzed 5 weeks following the initiation of ERT. Groups of mice were treated with clenbuterol (n=6), albuterol (n=4) or untreated (n=6).
Two β2 agonists were evaluated in combination with ERT, clenbuterol and albuterol. […] Groups of 3 month-old immune tolerant GAA-KO mice (Raben et al., Human Mol. Genet., 2001, 10:2039-2047) were treated with four weekly doses of rhGAA (20 mg/kg body weight), with or without concurrent β2 agonist treatment.
Mice were sacrificed 7 days after the last injection. Selected tissues were collected for GAA enzyme activity and glycogen content analyses. All animal procedures were done in accordance with Duke University Institutional Animal Care and Use Committee-approved guidelines. GAA activity and glycogen content analyses, Rotarod testing, and Western blot detection of CI-MPR was performed essentially as described (Koeberl et al., Mol. Genet. Metab., 2011, 103:107-112. Wire hang testing was performed with a 0.5 cm mesh hardware cloth fixed to an 8 by 10 inch frame. Mice were placed on the wire mesh, which was slowly inverted 6 inches over a cage containing paper bedding. The latency, or time until the mouse fell into the cage, was recorded.

Regarding `CC(C)(C)NCC(O)c1cc(Cl)c(N)c(Cl)c1` (stereo not shown) [clenbuterol], the “CI-MPR signal (densitometry of Western blots)” value in experiment [1] (EDL), in experiment [1] (cerebellum) and in experiment [1] (cerebrum) was “increased” in each case. Further, in experiment [2], the weight gain entry is “increased weight gain”. The GAA activity result in experiment [3] (gastrocnemius, p=0.04) is recorded as “significantly increased”; in experiment [3] (liver, p<0.0001) it was “significantly increased”; in experiment [3] (spleen, p=0.002), “significantly increased”; in experiment [5] (cerebellum, 5 weeks after initiation of ERT, clenbuterol p=0.08, albuterol p=0.09) it was “trend toward increased GAA activity”. The “weight of the gastrocnemius” value in experiment [4] is reported as “increased”. Further, the “GAA activity in tissues with reduced glycogen content” value in experiment [5] (β2 agonist plus ERT v. ERT alone) is “unchanged”.
